Reference: paper PMC7038631 (Alzheimer's & dementia : the journal of the Alzheimer's …, 2019)
Entries after “also recorded” stand apart in the source; their conditions may differ.

How the values were obtained:
[1] = target: purified recombinant full-length 2N4R wild-type (WT) tau (Homo sapiens, UniProt P10636); assay: Surface plasmon resonance binding to immobilized WT tau; conditions: read-out: Kd, binding to purified WT tau protein (SPR); steady-state, 25 °C, 1 nM to 5 μM
WT 2N4R tau monomer = assay: Single-molecule FRET; assay type: biochemical; conditions: 5 μM, vs buffer or DMSO
purified WT tau proteins = purified WT tau proteins (Homo sapiens, UniProt P10636); assay: Heparin induced thioflavin-T; assay type: biochemical
Chain of purified WT tau proteins (P10636 1-441 isoform P10636-8): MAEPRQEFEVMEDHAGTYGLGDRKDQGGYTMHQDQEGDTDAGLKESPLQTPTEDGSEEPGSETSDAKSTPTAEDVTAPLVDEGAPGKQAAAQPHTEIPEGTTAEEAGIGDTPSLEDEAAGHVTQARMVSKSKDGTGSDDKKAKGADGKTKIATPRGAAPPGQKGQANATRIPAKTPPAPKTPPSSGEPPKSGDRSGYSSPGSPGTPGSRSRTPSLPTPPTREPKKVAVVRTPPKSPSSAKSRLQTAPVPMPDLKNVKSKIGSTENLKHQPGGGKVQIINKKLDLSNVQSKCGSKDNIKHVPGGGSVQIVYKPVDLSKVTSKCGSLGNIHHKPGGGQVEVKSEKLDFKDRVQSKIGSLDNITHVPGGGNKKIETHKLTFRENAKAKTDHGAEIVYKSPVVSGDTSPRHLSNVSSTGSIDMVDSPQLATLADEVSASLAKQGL

[2] = target: tau preformed fibrils (PFF) (Homo sapiens, UniProt P10636); assay: ThT signal of tau preformed fibrils; assay type: biochemical; conditions: DTT 5 mM
Chain of tau preformed fibrils (PFF) (P10636 1-441 isoform P10636-8): as above

[3] = FRET control cells expressing free fluorophores; assay type: cell-based, human
[4] = system: untransfected SH-SY5Y cells; conditions: MK-886 0.5, 1 or 2 μM

Chain of purified recombinant full-length 2N4R wild-type (WT) tau (P10636 1-441 isoform P10636-8): as above

Row | SMILES | Kd [1] [nM] | smFRET change, N-terminal domain labeled tau construct (WT 2N4R tau monomer) | smFRET change, PRR/MTBR labeled tau construct (WT 2N4R tau monomer) | Direct effect on ThT fluorescence (purified WT tau proteins) | Effect on lag phase of tau β-sheet fibril formation (ThT) (purified WT tau proteins; heparin 0.4 mg/ml, MK-886 0.5 and 5 μM) | Nucleation of tau fibril formation without heparin (ThT) (purified WT tau proteins; no heparin) | Effect on ThT signal from tau PFF [2] | Action on cytosolic fluorophores (control FRET) [3] | Rescue of cell cytotoxicity induced by UC-112 ([4]; UC-112 1 μM) | Rescue of cell cytotoxicity induced by YM-155 ([4]; YM-155 1 μM)
1 | CC(C)c1ccc2c(c1)c(SC(C)(C)C)c(CC(C)(C)C(=O)O)n2Cc1ccc(Cl)cc1 [MK-886] | 178 | minor decrease in FRET | substantial increase in FRET | did not have a direct effect | reduces the lag phase; also recorded: shortens the lag phase | unable to nucleate tau fibrillization; also recorded: did not act to nucleate | did not reduce | not acting on the cytosolic fluorophores | did not rescue | did not rescue
2 | O=c1c(O)c(-c2ccc(O)c(O)c2)oc2c(O)c(O)cc(O)c12 [gossypetin] |  |  |  |  |  |  | significant decrease |  |  | 
